What all share (assay): biochemical
Common to all, as to format: binding

Experiment [1] addresses HLA-DR DRB5*0101 (DR51) (Homo sapiens, UniProt P01903+Q30154).
Experiment [2] deals with HLA-DR DRB1*1302 (DR13) (Homo sapiens, UniProt P01903+P01911, A100E/A169T/K41T/L162R/M171V/P40S/Q125H/Q178H/Q39Y/Q99D/R42S/S66N/T262R/V115G/W38E/Y61H).
Experiment [3] has as its target HLA-DR DRB1*1501 (DR15) (Homo sapiens, UniProt P01903+P01911).
Experiment [4] concerns the target HLA-DR DRB4*0101 (DR53) (Homo sapiens, UniProt P01903+P13762, G164S).
Experiment [5] deals with HLA-DR DRB1*0701 (DR7) (Homo sapiens, UniProt P01903+P01911, A100R/A102G/A103Q/D57E/D86V/E43K/F76Y/K127E/L162R/M171V/P40G/Q125H/Q99D/R33Q/R42Y/R54Q/S133A/S66F/T210M/V115G/Y107V/Y59L/Y89S). The note with it: DRB1 *0701.
Experiment [6] has as its target HLA-DR DRB1*0101 (DR1) (Homo sapiens, UniProt P01903+P01911, A100R/D57E/F55L/F60I/F76Y/I96L/L162R/M171V/P40L/Q125E/R42F/V115G/Y59C). The following applies: DRB1 *0101.
In experiment [7] the target is HLA-DR DRB1*0401 (DR4) (Homo sapiens, UniProt P01903+P01911, A100K/A169T/F76Y/I96L/K127E/L162R/M171V/N62H/P40V/Q125Y/R42H/S133A/S149N/S66Y/V115G/V209L/W38E).
The target of experiment [8] is HLA-DR DRB1*1101 (DR11) (Homo sapiens, UniProt P01903+P01911, A100R/A169T/A87E/I96F/K41T/L162R/M171V/P40S/Q125H/Q178H/Q39Y/Q99D/R42S/S66Y/T262R/V115G/W38E).

Like-named read-outs stand apart in the source and are kept apart here. No end group written: not given here. Bounds are passed on as bounds.

Drawing on US20060079453A1, “Hla binding peptides and their uses” (priority 2002, published 2006), this text covers IC50 for 23 substances.

HLA-DR DRB1*1101 (DR11), sequence (P01903 26-254 limits assumed, other chains not shown): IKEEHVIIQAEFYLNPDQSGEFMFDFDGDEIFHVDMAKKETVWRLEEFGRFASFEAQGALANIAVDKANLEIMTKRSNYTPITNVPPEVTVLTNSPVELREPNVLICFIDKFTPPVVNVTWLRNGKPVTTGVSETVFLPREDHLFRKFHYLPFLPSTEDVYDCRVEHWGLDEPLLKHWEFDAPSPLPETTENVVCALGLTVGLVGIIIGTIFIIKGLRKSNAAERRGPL
HLA-DR DRB1*1302 (DR13), sequence (P01903 26-254 limits assumed, other chains not shown): as above

Consider LCNFKKNIIALLHP, for which the IC50 in experiment [1] (read-out: DRB5 *0101) is above 42600 nM; in experiment [2] (read-out: DRBI *1302), 16 nM; in experiment [3] (read-out: DRBI *1501), 29300 nM; in experiment [4] (read-out: DRB4 *0101), 99 nM.
Take ENPVVHFFANIVTPR: the IC50 in experiment [1] (DRB5 *0101) stood at 6240 nM; in experiment [3] (DRBI *1501), 2.9 nM.
In the case of HFNMLKNKMQSSFFM, the IC50 in experiment [1] (DRB5 *0101) was found to be 60 nM; in experiment [5] it was 3230 nM; in experiment [6] it was 12 nM; in experiment [3] (DRBI *1501), 616 nM; in experiment [4] (DRB4 *0101), 934 nM; in experiment [7] (DRB1 *0401) it was 18 nM.
For HFFKNIVTPRTPPY, the IC50 in experiment [1] (DRB5 *0101) came out at 377 nM; in experiment [3] (DRBI *1501), 460 nM.
Turning to SVTWIGAAPLILSRI, the IC50 in experiment [2] (read-out: DRBI *1302) is 420 nM; in experiment [8] (read-out: DRB1 *1101), 2200 nM; in experiment [4] (read-out: DRB4 *0101), 42 nM.
Consider YEEYVRFDSDVGE, for which the IC50 is at least 200000 nM in experiment [1] (DRB5 *0101), at least 200000 nM in experiment [8] (DRB1 *1101), at least 50000 nM in experiment [6] and 400 nM in experiment [7] (DRB1 *0401).
In the case of DFVFADLRIVYRDGN, the IC50 in experiment [1] (read-out: DRB5 *0101) turned out to be 8430 nM; in experiment [8] (read-out: DRB1 *1101) it was 6960 nM; in experiment [4] (read-out: DRB4 *0101) it was 6710 nM.
For MTLYQIQVMKRNQKQ, the IC50 worked out at 22 nM in experiment [1] (DRB5 *0101); 323 nM in experiment [2] (DRBI *1302); 31100 nM in experiment [5]; 1220 nM in experiment [6]; 2430 nM in experiment [3] (DRBI *1501); 82 nM in experiment [4] (DRB4 *0101). The same substance yielded an IC50 in experiment [7] (DRB1 *0401) of 117 nM.
Take RIVYRDNNPYGVCIM: the figures for the IC50 in experiment [1] (read-out: DRB5 *0101), in experiment [3] (read-out: DRBI *1501) and in experiment [4] (read-out: DRB4 *0101) were 20500 nM, 821 nM and 1400 nM, respectively.
Take SKIMKLPKLPISNGK: the IC50 in experiment [1] (DRB5 *0101) was above 10300 nM; in experiment [2] (DRBI *1302), 6460 nM; in experiment [3] (DRBI *1501), 3570 nM; in experiment [4] (DRB4 *0101), 6740 nM.
On to ENEYATGAVRPFQAA, for which the IC50 is above 10300 nM in experiment [1] (DRB5 *0101); 9300 nM in experiment [2] (DRBI *1302); 4970 nM in experiment [5]; 4440 nM in experiment [6]; 3010 nM in experiment [3] (DRBI *1501); 10000 nM in experiment [4] (DRB4 *0101). The substance further showed an IC50 in experiment [7] (DRB1 *0401) of 281 nM.
As to SAFLESQSMNKIGDD, the IC50 was found to be 243 nM in experiment [1] (DRB5 *0101); 523 nM in experiment [5]; 549 nM in experiment [6]; 18700 nM in experiment [3] (DRBI *1501); 302 nM in experiment [4] (DRB4 *0101).
Turning to ENPVVAFFKNIVTPR, the IC50 in experiment [1] (DRB5 *0101) turned out to be 302 nM; in experiment [3] (DRBI *1501), 2.8 nM.
Turning to PATYGIIVPVLTSLF, the IC50 worked out at 52 nM in experiment [1] (DRB5 *0101), 1.03 nM in experiment [6], 2560 nM in experiment [3] (DRBI *1501) and 15 nM in experiment [7] (DRB1 *0401).
Consider FLYGALLLAEGFYTTGAVRQ, for which the IC50 in experiment [1] (DRB5 *0101) worked out at 256 nM; in experiment [3] (DRBI *1501), 45 nM.
Consider LREYILDLHPEPTDL, for which the IC50 in experiment [1] (read-out: DRB5 *0101) is above 40400 nM; in experiment [8] (read-out: DRB1 *1101), 9830 nM.
For EYLILSARDVLAVVS, the IC50 in experiment [1] was determined as 4150 nM; in experiment [8], 6860 nM; in experiment [3], 2340 nM; in experiment [4] (DRB4 *0101) it was 2530 nM; in experiment [7], 508 nM.
For the substance LAHYDVLLSYPNKTA, the values for the IC50 in experiment [8] (read-out: DRB1 *1101), in experiment [3] (read-out: DRBI *1501) and in experiment [4] (read-out: DRB4 *0101) were 380 nM, 82 nM and 589 nM, respectively.
For SMEYKKDFLITARKY, the figures for the IC50 in experiment [2] (read-out: DRBI *1302) and in experiment [3] (read-out: DRBI *1501) were 3820 nM and 4610 nM, respectively.
With NYELSKKAVIFTPIY [NYELSKXAVIFTPIY], the IC50 in experiment [1] (DRB5 *0101) is 10600 nM; in experiment [2] (DRBI *1302), 410 nM; in experiment [3] (DRBI *1501), 537 nM.
Consider NPVVHFFKNIVT, for which the values for the IC50 in experiment [1] (DRB5 *0101) and in experiment [3] (DRBI *1501) were 10000 nM and 23 nM, respectively.
Turning to SAVPVYIYFNTWTTCQSIAF, the IC50 in experiment [1] (read-out: DRB5 *0101) amounted to 20000 nM; in experiment [3] (read-out: DRBI *1501) it was 92 nM.
Regarding (16A)RQTTLKAAA, the IC50 in experiment [1] (read-out: DRB5 *0101) was found to be 4000 nM; in experiment [8] (read-out: DRB1 *1101), 77 nM; in experiment [7] (read-out: DRB1 *0401) it was 1.3 nM.
